From US10273237B2, “Imidazopyridazine compounds useful as modulators of IL-12, IL-23 and/or IFN-α responses” (BRISTOL-MYERS SQUIBB COMPANY, priority 2013, dated 2019)
Like-named read-outs stand apart in the source and are kept apart here.

How the values were obtained:
[1] = system: IL-23-stimulated Kit225 T cells with STAT-dependent luciferase reporter; assay: Kit225 T cell assay, STAT-dependent luciferase reporter, IL-23 stimulated; type: cell-based, human; settings: read-out: IL-23 Kit225 Reporter, LE (IC50)
Protocol: (§1) Kit225 T cells with a stably-integrated STAT-dependent luciferase reporter were plated in RPMI (GIBCO) containing 10% heat-inactivated FBS (GIBCO) and 100 U/mL PenStrep (GIBCO). The cells were then stimulated with either 20 ng/mL human recombinant IL-23 or 200 U/mL human recombinant IFNα (PBL InterferonSource) for 5-6 hours. Luciferase expression was measured using the STEADY-GLO® Luciferase Assay System (PROMEGA®) according to the manufacturer's instructions.

[2] = system: IFNα-stimulated Kit225 T cells with STAT-dependent luciferase reporter; assay: Kit225 T cell assay, STAT-dependent luciferase reporter, IFNα stimulated; type: cell-based, human; settings: 5-6 hours, read-out: IFNa Kit225 Reporter, LE (IC50)
Protocol: as §1

[3] = 20 ng/mL human recombinant IL-23, 5-6 hours
[4] = 200 U/mL human recombinant IFNα
[5] = Homo sapiens, KIT225, 20 ng/mL human recombinant IL-23, 5-6 hours
[6] = Homo sapiens, KIT225, 200 U/mL human recombinant IFNα

Compound	IC50 [1, 3]	IC50 [2, 4]	IC50 [1, 5]	IC50 [2, 6]
CNc1cc(Nc2cccn(C(C)C)c2=O)nn2c(C(=O)NCC(C)(C)CO)cnc12 [Example 217]	90 nM	100 nM		
CCNC(=O)c1cnc2c(NC)cc(Nc3cccn(-c4ccccn4)c3=O)nn12 [Example 66]	90 nM	180 nM		
CNc1ccc(-n2cccc(Nc3cc(NC)c4ncc(C(=O)NC5CC5)n4n3)c2=O)cn1 [Example 206]	490 nM	380 nM		
CNc1cc(Nc2cccn(-c3cccc(C)n3)c2=O)nn2c(C(=O)NC3CC3)cnc12 [Example 46]	360 nM	160 nM		
CNc1cc(Nc2cccn(C(C)C)c2=O)nn2c(C(=O)NC3(C#N)CC3)cnc12 [Example 216]	900 nM	440 nM		
CNc1cc(Nc2cc(Cl)cn(C)c2=O)nn2c(C(=O)NC3CC3)cnc12 [Example 22]	150 nM	50 nM		
CNc1cc(Nc2cccn(-c3ccccn3)c2=O)nn2c(C(=O)NC3CCC3)cnc12 [Example 34]	60 nM	50 nM		
CNc1cc(Nc2cccn(-c3ccnc(F)c3)c2=O)nn2c(C(=O)NC3CC3)cnc12 [Example 134]	220 nM	140 nM		
CNc1cc(Nc2cccn(-c3cccc(F)n3)c2=O)nn2c(C(=O)NCc3nccs3)cnc12 [Example 192]	230 nM	180 nM		
CNc1cc(Nc2cccn(-c3ccn(C4CC4)n3)c2=O)nn2c(C(=O)NC3CCC3)cnc12 [Example 166]	290 nM	50 nM		
CNc1cc(Nc2cccn(C)c2=O)nn2c(C(=O)NC3CCCCC3C)cnc12 (stereo not shown) [Example 215]	190 nM	300 nM		
CNc1cc(Nc2cccn(-c3ccn(C4CC4)n3)c2=O)nn2c(C(=O)NC3CC3)cnc12 [Example 165]	430 nM	130 nM		
CNc1cc(Nc2cccn(-c3ncc(F)cn3)c2=O)nn2c(C(=O)NC3CC3)cnc12 [Example 171]	210 nM	140 nM		
CNc1cc(Nc2cccn(C)c2=O)nn2c(C(=O)Nc3ccccc3)cnc12 [Example 212]	110 nM	2480 nM		
CNc1cc(Nc2cccn(-c3ccccc3)c2=O)nn2c(C(=O)NC3CCCC3O)cnc12 (stereo not shown) [Example 189]	230 nM	190 nM		
CNc1cc(Nc2cccn(-c3ccc(C(C)O)cn3)c2=O)nn2c(C(=O)NC3CC3)cnc12 (stereo not shown) [compound 254]			230 nM	260 nM
CNc1cc(Nc2cncn(-c3cccc(C(C)O)n3)c2=O)nn2c(C(=O)NC3CCC3)cnc12 (racemic) [Example 87]	220 nM	160 nM		
CNc1cc(Nc2cccn(C3(C)CC3)c2=O)nn2c(C(=O)NC3(C#N)CC3)cnc12 [Example 162]	650 nM	250 nM		
CNc1cc(Nc2cccn(-c3ccc(F)cc3)c2=O)nn2c(C(=O)NC3CC3)cnc12 [Example 10]	150 nM	120 nM		

Compound	IC50 [1, 3]	IC50 [2, 4]	IC50 [1, 5]	IC50 [2, 6]
CNc1cc(Nc2cccn(C3CCN(C(C)=O)CC3)c2=O)nn2c(C(=O)NC3C[C@@H]3F)cnc12 (stereo partly shown) [Example 251]			350 nM	400 nM
CNc1cc(Nc2cccn(C3CCC(N4CCOCC4)CC3)c2=O)nn2c(C(=O)NC3CC3)cnc12 (stereo not shown) [Example 224]	680 nM	470 nM		
CNc1cc(Nc2cccn(-c3ccc(C)nn3)c2=O)nn2c(C(=O)NC(C)CC(C)C)cnc12 (stereo not shown) [Example 235]	560 nM	910 nM		
CNc1cc(Nc2ccnn(-c3ccccc3)c2=O)nn2c(C(=O)NC3CC3)cnc12 [Example 179]	480 nM	570 nM		
CNc1cc(Nc2cccn(C)c2=O)nn2c(C(=O)NCC(C)(C)CO)cnc12 [Example 9, N-(3-Hydroxy-2,2-dimethylpropyl)-6-((1-methyl-2-oxo-1,2-dihydropyridin-3-yl)amino)-8-(methylamino)imidazo[1,2-b]pyridazine-3-carboxamide]			120 nM	40 nM
CNc1cc(Nc2cccn(C)c2=O)nn2c(C(=O)NC(C)C#N)cnc12 (stereo not shown) [Example 129]	440 nM	160 nM		
CNc1cc(Nc2cccn(-c3ccc(F)nc3)c2=O)nn2c(C(=O)N[C@@H]3C[C@@H]3F)cnc12 [Example 40]	160 nM	50 nM		
CNc1cc(Nc2cccn(-c3cccc(C(C)(C)O)n3)c2=O)nn2c(C(=O)NC3CC3)cnc12 [Example 81]	180 nM	120 nM		
CCCCn1cc(Cl)cc(Nc2cc(NC)c3ncc(C(=O)NC4CC4)n3n2)c1=O [Example 244]			290 nM	120 nM
CCNC(=O)c1cnc2c(NC)cc(Nc3cccn(-c4ccn(C)n4)c3=O)nn12 [Example 107]	230 nM	270 nM		
CNc1cc(Nc2cccn(-c3ccc(F)cc3)c2=O)nn2c(C(=O)NCC(C)(CO)CO)cnc12 [Example 14]	570 nM	460 nM		
CNc1cc(Nc2cccn(C(C)C)c2=O)nn2c(C(=O)NC3CC3)cnc12 [Example 213]	230 nM	420 nM		
CNc1cc(Nc2cccn(-c3ccc(C)nn3)c2=O)nn2c(C(=O)NC3CCCC3)cnc12 [Example 95]	160 nM	150 nM		
CNc1cc(Nc2cc(F)cn(C)c2=O)nn2c(C(=O)NCC3(CO)CC3)cnc12 [Example 30]	390 nM	200 nM		
CNc1cc(Nc2cccn(-c3ncc(C(F)(F)F)cn3)c2=O)nn2c(C(=O)NC3CC3)cnc12 [Example 175]	310 nM	110 nM		
CNc1cc(Nc2cccn(-c3cccc(F)c3)c2=O)nn2c(C(=O)NC3(C#N)CC3)cnc12 [Example 53]	170 nM	80 nM		
CNc1cc(Nc2cccn(-c3ccc(C#N)cc3)c2=O)nn2c(C(=O)NC3(C#N)CC3)cnc12 [Example 13]	150 nM	230 nM		
CNc1cc(Nc2cccn(-c3ncccn3)c2=O)nn2c(C(=O)NC3CCC3)cnc12 [Example 52]	210 nM	130 nM		
CNc1cc(Nc2cc(C)cn(-c3ccc(C)nn3)c2=O)nn2c(C(=O)NC3CC3)cnc12 [Example 91]	230 nM	150 nM		

Compound	IC50 [1, 3]	IC50 [2, 4]	IC50 [1, 5]	IC50 [2, 6]
CNc1cc(Nc2cccn(-c3ccc(C(C)(C)O)cn3)c2=O)nn2c(C(=O)NC3CC3)cnc12 [Example 252, N-cyclopropyl-6-((5′-(2-hydroxypropan-2-yl)-2-oxo-2H-[1,2′-bipyridin]-3-yl)amino)-8-(methylamino)imidazo[1,2-b]pyridazine-3-carboxamide]			450 nM	190 nM
CNc1cc(Nc2cccn(-c3ccc(C(F)F)cc3)c2=O)nn2c(C(=O)NC3(C#N)CC3)cnc12 [Example 20]	130 nM	80 nM		
CNc1cc(Nc2cccn(C)c2=O)nn2c(C(=O)N[C@@H]3C[C@@H]3F)cnc12 [Example 116]	80 nM	50 nM		
CNc1cc(Nc2cccn(-c3ccn(C)n3)c2=O)nn2c(C(=O)NC3CCC3)cnc12 [Example 159]	30 nM	40 nM		
CNc1cc(Nc2cccn(C3CCC3)c2=O)nn2c(C(=O)NC3CC3)cnc12 [Example 228]	210 nM	100 nM		
CCC(C)NC(=O)c1cnc2c(NC)cc(Nc3cccn(C)c3=O)nn12 (single isomer, unassigned) [Example 72]	460 nM	440 nM		
CNc1cc(Nc2cccn(C3CCN(C(=O)C4(C(F)(F)F)CC4)CC3)c2=O)nn2c(C(=O)NC3CC3)cnc12 [Example 246]			200 nM	220 nM
CNc1cc(Nc2cccn(-c3ccc(C(=O)N4CCC4)cn3)c2=O)nn2c(C(=O)N[C@@H]3C[C@@H]3F)cnc12 [compound 264]			90 nM	40 nM
CNc1cc(Nc2cccn(-c3ncc(F)cn3)c2=O)nn2c(C(=O)N[C@@H]3C[C@@H]3F)cnc12 [Example 174]	50 nM	40 nM		
CNc1cc(Nc2cccn(C3CCOC3)c2=O)nn2c(C(=O)NC3CCCC3)cnc12 (stereo not shown) [Example 222]	290 nM	130 nM		
CCn1cc(Cl)cc(Nc2cc(NC)c3ncc(C(=O)NC4CC4)n3n2)c1=O [Example 243, 6-((5-chloro-1-ethyl-2-oxo-1,2-dihydropyridin-3-yl)amino)-N-cyclopropyl-8-(methylamino)imidazo[1,2-b]pyridazine-3-carboxamide]			50 nM	20 nM
CNc1cc(Nc2cccn(C3CCN(CC(F)F)CC3)c2=O)nn2c(C(=O)NC3CC3)cnc12 [Example 250]			100 nM	390 nM
CNc1cc(Nc2cccn(-c3ccc(C(=O)N4CCCC4)cn3)c2=O)nn2c(C(=O)N[C@@H]3C[C@@H]3F)cnc12 [compound 265]			40 nM	60 nM
CNc1cc(Nc2cc(Cl)cn(C)c2=O)nn2c(C(=O)NC3(C#N)CC3)cnc12 [Example 23]	70 nM	20 nM		
CNc1cc(Nc2nccn(C)c2=O)nn2c(C(=O)NC3CCC3)cnc12 [Example 84]	3860 nM	4270 nM		
CNc1cc(Nc2cccn(C3CCC3)c2=O)nn2c(C(=O)NC3(C#N)CC3)cnc12 [Example 229]	240 nM	180 nM		
CNc1cc(Nc2cccn(-c3cccc(C(C)(C)O)n3)c2=O)nn2c(C(=O)NC3CCC3)cnc12 [Example 77]	20 nM	30 nM		
CNc1cc(Nc2cccn(-c3ccc(C)nn3)c2=O)nn2c(C(=O)NCCF)cnc12 [Example 102]	260 nM	260 nM		
